Drawing on ChEMBL document CHEMBL1145572, “Analogues of N-hydroxy-N'-phenylthiourea and N-hydroxy-N'-phenylurea as inhibitors of tyrosinase and melanin formation” (Bioorg Med Chem Lett, 2008), this text covers Activity, IC50 and inhibition for 25 compounds.

Experiment [1] deals with B16. The experiment is described as follows: Inhibition of melanin production in mouse B16 cells at 100 uM. The experiment is classed as functional.
For experiment [2], the system named is B16. The experiment is described as follows: Cytotoxicity against mouse B16 cells at 100 uM. The experiment is classed as functional, cell-based.
For another experiment, the target named is T1, Tyrosinase (Agaricus bisporus, UniProt O42713).
T1 sequence (O42713 whole entry): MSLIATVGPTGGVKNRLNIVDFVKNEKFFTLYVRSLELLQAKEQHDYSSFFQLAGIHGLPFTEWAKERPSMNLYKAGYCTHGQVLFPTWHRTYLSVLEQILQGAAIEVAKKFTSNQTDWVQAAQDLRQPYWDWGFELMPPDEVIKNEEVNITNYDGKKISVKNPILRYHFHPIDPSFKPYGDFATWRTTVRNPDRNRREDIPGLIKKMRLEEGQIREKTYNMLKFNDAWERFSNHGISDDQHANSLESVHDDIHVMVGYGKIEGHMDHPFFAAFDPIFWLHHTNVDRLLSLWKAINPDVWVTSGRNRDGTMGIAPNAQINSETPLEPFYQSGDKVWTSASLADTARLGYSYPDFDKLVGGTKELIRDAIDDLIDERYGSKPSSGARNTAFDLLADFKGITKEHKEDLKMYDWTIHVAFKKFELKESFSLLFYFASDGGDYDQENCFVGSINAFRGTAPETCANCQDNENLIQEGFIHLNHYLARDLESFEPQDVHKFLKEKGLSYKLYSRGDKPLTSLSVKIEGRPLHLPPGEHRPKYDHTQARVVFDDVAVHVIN

The subject of experiment [3] is B16. The experiment is described as follows: Inhibition of melanin production in mouse B16 cells at 50 uM. The experiment is classed as functional.

Activity calls are given as the source filed them. The rule behind the calls is not given here.

Description for Tyrosinase: Inhibition of mushroom tyrosinase

Usually IC50 stands for the concentration that inhibits the measured activity by half. In the case of `COc1ccc(NC(=O)NO)c(OC)c1`, the outcome in the experiment on B16 [1] and in the experiment with B16 [2] was inactive. The IC50 at Tyrosinase was more than 1000 µM.

As to `CN(O)C(=O)Nc1ccc(Br)cc1`, the result in the experiment on B16 [1] and in the experiment with B16 [2] was inactive. Further, on Tyrosinase, the IC50 is more than 1000 µM.

What is called inhibition is the relative decrease from the control value, in per cent. Compound `O=C(NO)Nc1ccc(Br)cc1` yielded an inhibition at 100 µM in the experiment with B16 [1] of 75.5%. The result with B16 [2] was inactive. Further, the IC50 on Tyrosinase was 2.7 µM.

As to `OC[C@H]1O[C@@H](Oc2ccc(O)cc2)[C@H](O)[C@@H](O)[C@@H]1O` [ARBUTIN], 100 µM produced 43.8% inhibition in the experiment on B16 [1].

Take `O=C(NO)Nc1ccc(OCc2ccccc2)cc1`: the outcome in the experiment on B16 [1] and in the experiment on B16 [2] was inactive. Besides, 6.3 µM corresponded to half-maximal inhibition at Tyrosinase (IC50).

`CONC(=O)Nc1ccccc1`: the result in the experiment on B16 [1] and in the experiment on B16 [2] was inactive. This compound registered a concentration for half-maximal inhibition (IC50) against Tyrosinase of more than 1000 µM.

In the case of `CN(O)C(=O)Nc1ccccc1`, the outcome in the experiment with B16 [1] and in the experiment with B16 [2] was inactive. For the same compound, the IC50 against Tyrosinase was more than 1000 µM.

On to `CN(C(=O)NO)c1ccccc1`, for which the result in the experiment on B16 [2] was inactive. On Tyrosinase, this compound gave a half-maximal inhibitory concentration (IC50) of 16 µM.

Take `O=C(NO)Nc1ccc([N+](=O)[O-])cc1`: the inhibition at 100 µM in the experiment on B16 [1] was 86%. Further, the outcome in the experiment on B16 [2] was inactive. This compound also showed an IC50 against Tyrosinase of 2.6 µM.

At Tyrosinase, `Oc1ccc(O)cc1` [HYDROQUINONE] returned an IC50 of 37 µM.

`CN(O)C(=O)Nc1ccc([N+](=O)[O-])cc1`: 100 µM produced 82% inhibition with B16 [1]. In the experiment with B16 [2], the result was inactive. At Tyrosinase, 770 µM corresponded to half-maximal inhibition (IC50).

On to `O=C(NO)Nc1ccccc1`, for which at 100 µM the inhibition with B16 [1] was 78%. The result in the experiment on B16 [2] was inactive. Further, on Tyrosinase, 0.29 µM corresponded to half-maximal inhibition (IC50).

`O=C(NO)Nc1ccc(C(F)(F)F)cc1` came in with an inhibition at 100 µM with B16 [1] of 79.3%. Besides, the outcome in the experiment on B16 [2] was inactive. Moreover, at Tyrosinase, half-maximal inhibition (IC50) was put at 4.3 µM.

`CONC(=O)N(C)c1ccccc1`: the result in the experiment with B16 [2] was inactive. At Tyrosinase, this compound registered an IC50 of more than 1000 µM.

Consider `CCCCOc1ccc(NC(=O)NO)cc1`, for which the outcome in the experiment on B16 [1] and with B16 [2] was inactive. Also, the concentration for half-maximal inhibition (IC50) against Tyrosinase was more than 1000 µM.

`CONC(=S)Nc1ccc([N+](=O)[O-])cc1` gave an inhibition at 50 µM in the experiment on B16 [3] of 75.5%. For the same compound, the outcome with B16 [2] was inactive. The compound further displayed a half-maximal inhibitory concentration (IC50) on Tyrosinase of more than 1000 µM.

Compound `O=C(NO)Nc1ccc(O)cc1` came in with an inhibition at 100 µM in the experiment with B16 [1] of 19%. The outcome with B16 [2] was inactive. The IC50 against Tyrosinase turned out to be 41 µM.

On to `CC(=O)N(O)C(=O)Nc1ccccc1`, for which the result in the experiment with B16 [2] was inactive. The compound further yielded an IC50 against Tyrosinase of 170 µM.

`NC(=O)Nc1ccccc1`: in the experiment with B16 [1], the result was inactive. Moreover, the IC50 against Tyrosinase was more than 1000 µM.

Consider `COc1ccc(NC(=O)NO)cc1`, for which the result in the experiment with B16 [1] and in the experiment with B16 [2] was inactive. Half-maximal inhibition against Tyrosinase (IC50) was put at 32 µM.

Take `O=C(NO)Nc1ccc(NC(=O)NO)cc1`: testing at 100 µM in the experiment with B16 [1] gave an inhibition of 66%. In the experiment on B16 [2], the result was inactive. The compound further displayed an IC50 on Tyrosinase of 27 µM.

In the experiment with B16 [1], `CONC(=S)Nc1ccc2ccccc2c1` showed an inhibition at 100 µM of 85%. In the experiment on B16 [2], the result was inactive. Inhibition on Tyrosinase was half-maximal at 26 µM (IC50).

On to `CN(O)C(=O)N(C)c1ccccc1`, for which the outcome in the experiment on B16 [2] was inactive. The half-maximal inhibitory concentration (IC50) on Tyrosinase is more than 1000 µM.

In the case of `CC(C)(C)[Si](C)(C)ONC(=O)Nc1ccccc1`, the result with B16 [1] and with B16 [2] was inactive. The IC50 on Tyrosinase worked out at 70 µM.

Take `ONC(=S)Nc1ccccc1`: the outcome in the experiment with B16 [1] and in the experiment with B16 [2] was inactive. On Tyrosinase, the half-maximal inhibitory concentration (IC50) was more than 1000 µM.
